In patent US20170292961A1, “SYSTEMS AND METHODS FOR ASSESSING INTER-CELL COMMUNICATION” (Q-STATE BIOSCIENCES, INC., priority 2014, published 2017):
Numbering of substitutions follows the chain as printed. Names and notes keep the numbering of the source. Values joined by “and” are separate entries in the source; they are usually repeats but may differ in a detail not shown here. Equal values may be shown once. Read-outs that look alike come from different tables or passages of the source. One block for each molecule: values may come before it.

Key:
patient-derived neurons = assay: Spike frequency of patient-derived neurons exposed to an anticonvulsant; format: cell-based; details: for spike frequency: in DMSO versus DMSO alone
Source text: FIG. 52 illustrates the results of exposing patient-derived neurons to acute doses of an anticonvulsant. A frequency of spiking is plotted over unitless scaled stimulus strength. Angled vertical lines are drawn onto the graph to aid in showing which data points correspond to one another. Asterisks are used to indicate a significance of a difference. […] FIG. 53 illustrates the results of exposing patient-derived neurons to chronic doses of an anticonvulsant. A frequency of spiking is plotted over unitless scaled stimulus strength. After exposure to STR in DMSO (versus exposure to the DMSO alone), spike frequency is decreased. […] Thus it can be seen that methods and compositions of the invention may be used to evaluate signal propagation between cells such as cardiomyocytes or neurons.

neurons = system: neurons
Source text: Methods of the invention may be used to evaluate the effects of compounds on neurons. In some embodiments, the cells that include the optical voltage reporter are neurons and those neurons are exposed to a voltage-gated potassium channel blocker such as tetraethylammonium.

[1] = system: estrogen sulfotransferase; details: pathway of metabolism of birth control pill ingredients; cited from earlier work
membrane voltage [2] = details: literature indicators; cited from earlier work
membrane voltage [3] = assay: Speed and sensitivity of fluorescent voltage indicators
Source text: Membrane voltage can be measured with a precision of <1 mV in a 1 s interval. […] Arch 3 WT retains the photo-induced proton-pumping, so illumination slightly hyperpolarizes the cell. […] The voltage-indicating protein reporters, sometimes referred to as genetically encoded voltage indicators (GEVIs), may be excited with a laser at wavelengths between 590-640 nm, and the emission is in the near infrared, peaked at 710 nm.

HEK 293T cells = assay: Arch fluorescence versus membrane potential in HEK cells under whole-cell voltage clamp; format: cell-based, human
Source text: An optical reporter such as Arch 3 may be expressed in human embryonic kidney 293 (HEK293T) cells. Fluorescence of Arch 3 in HEK 293T cells was readily imaged in an inverted fluorescence microscope with red illumination (=640 nm, I=540 W/cm2), a high numerical aperture objective, a Cy5 filter set, and an EMCCD camera.
Fluorescence of Arch 3 in HEK 293 cells was readily imaged in an inverted fluorescence microscope with red illumination (lambda=640 nm, I=540 W/cm̂2), a high numerical aperture objective, a Cy5 filter set, and an EMCCD camera. […] Cells not expressing Arch were not fluorescent.
The fluorescence of HEK cells expressing Arch was highly sensitive to membrane potential, as determined via whole-cell voltage clamp. We developed an algorithm to combine pixel intensities in a weighted sum such that the output, was a nearly optimal estimate of membrane potential V determined by conventional electrophysiology.
The fluorescence was divided by its value at −150 mV. The fluorescence increased by a factor of 2 between −150 mV and +150 mV, with a nearly linear response throughout this range (FIG. 35). The response of fluorescence to a step in membrane potential occurred within the 500 micro s time resolution of our imaging system on both the rising and falling edge.
The overshoots on the rising and falling edges were an artifact of electronic compensation circuitry. Data were an average of 20 cycles. […] Cells not expressing Arch 3 were not fluorescent. […] Application of a sinusoidally varying membrane potential led to sinusoidally varying fluorescence; at f=1 kHz, the fluorescence oscillations retained 55% of their low-frequency amplitude (FIG. 37). Arch reported voltage steps as small as 10 mV, with an accuracy of 625 micro V/(Hz)̂(1/2) over timescales<12 s (FIG. 38). Over longer timescales laser power fluctuations and cell motion degraded the accuracy.

Source text for cardiomyocytes: In some embodiments, the reporter cells also include an optical ion sensor that indicates an intracellular concentration of an ion, for example, a calcium reporter. In a preferred embodiment, the optical voltage reporter and the calcium reporter are provided together within a fusion protein. For example, the fusion protein may be CaViar which includes a calcium reporter and a voltage indicator. Using such a fusion protein, detecting the optical signal may include detecting an action potential and calcium transients.
The columns show results from increasing concentrations and each panel is fluorescence over time.

Molecule: CC(C)(C)C(O)/C=C/c1ccc2c(c1)OCO2 (stereo not drawn) [stiripentol]
spike frequency (patient-derived neurons; acute doses): significantly decreased
spike frequency (patient-derived neurons; chronic doses): decreased
impact on spike frequency, acute versus chronic exposure (patient-derived neurons; visual comparison of FIG. 52 to FIG. 53): acute STR has a more severe impact on spike frequency than chronic exposure

AP30 (cardiomyocytes): decrease
AP60 (cardiomyocytes): decrease
AP90 (cardiomyocytes): decrease
Ca amplitude (cardiomyocytes): decrease
average action potential waveform (cardiomyocytes): diverge dramatically
calcium trace (fluorescence over time) (cardiomyocytes): dramatically diminished
rise time (cardiomyocytes): increase
rise time (average, FIG. 46) (cardiomyocytes): interferes with rise time
voltage trace (fluorescence over time) (cardiomyocytes): dramatically diminished
Molecule: O=C(NCC1CCCCN1)c1cc(OCC(F)(F)F)ccc1OCC(F)(F)F (stereo not drawn) [flecainide]

Molecule: CC[N+](CC)(CC)CC [tetraethylammonium]
instantaneous firing rate (neurons; after a few seconds of increasing stimulus intensity, before vs after exposure): unexposed cells (“before”) consistently fire at a higher rate
Ahp (neurons; after exposure): change in Ahp
number of spiking cells (neurons; after exposure): reduction in the number of spiking cells
return of fluorescence to baseline (average waveform) (neurons; after exposure): does not return to baseline to the degree it did before exposure
spike height (neurons; after exposure): lower
instantaneous firing rate (neurons; lower stimulus intensities (time=0 to about 2 s), exposed cells): a few very high spikes in firing rate

Molecule: CO[C@H]1/C=C/O[C@@]2(C)Oc3c(C)c(O)c4c(O)c(c(/C=N/N5CCN(C)CC5)c(O)c4c3C2=O)NC(=O)/C(C)=C\C=C\[C@H](C)[C@H](O)[C@@H](C)[C@@H](O)[C@@H](C)[C@H](OC(C)=O)[C@@H]1C [Rifampin]
induction of estrogen sulfotransferase [1]: induce

AP30 (cardiomyocytes): decrease
AP60 (cardiomyocytes): decrease
AP90 (cardiomyocytes): decrease
Ca amplitude (cardiomyocytes): decrease
average action potential waveform (cardiomyocytes): AP prolongation
calcium trace (fluorescence over time) (cardiomyocytes): severely diminished
rise time (cardiomyocytes): increase
voltage trace (fluorescence over time) (cardiomyocytes): less pronounced effect
Molecule: COc1c(N2C[C@@H]3CCCN[C@@H]3C2)c(F)cc2c(=O)c(C(=O)O)cn(C3CC3)c12 [moxifloxacin]

Molecule: Flash
f (delta F/F per 100 mV) (membrane voltage [2]): 5.1%
response time (membrane voltage [2]): 2.8 to 85 ms

B1: Arch 3 WT: wild type Archaerhodopsin 3, light-driven proton pump from Halorubrum sodomense used as fluorescent voltage indicator (protein, UniProt P96787 7-258, looked up)
Archaerhodopsin-3: QAGYDLLGDGRPETLWLGIGTLLMLIGTFYFLVRGWGVTDKDAREYYAVTILVPGIASAAYLSMFFGIGLTEVTVGGEMLDIYYARYADWLFTTPLLLLDLALLAKVDRVTIGTLVGVDALMIVTGLIGALSHTAIARYSWWLFSTICMIVVLYFLATSLRSAAKERGPEVASTFNTLTALVLVLWTAYPILWIIGTEGAGVVGLGIETLLFMVLDVTAKVGFGFILLRSRAILGDTEAPEPSAGADVSAAD
time to 90% of step response (membrane voltage [3]): 0.6 ms
response time (membrane voltage [3]; Arch indicators): < 0.5 ms and 0.6 ms
smallest voltage steps reported (HEK 293T cells): 10 mV
fluorescence increase (factor) (HEK 293T cells; between −150 mV and +150 mV): 2
response of fluorescence to a step in membrane potential (HEK 293T cells; rising and falling edge, time resolution of imaging system): ≤ 500 micro s
fluorescence oscillation amplitude retained relative to low-frequency amplitude (HEK 293T cells; sinusoidally varying membrane potential, f=1 kHz): 55%
step response time (HEK 293T cells; steps between −70 mV and +30 mV, resolution of imaging system): < 0.5 ms
accuracy of reported voltage (HEK 293T cells; timescales<12 s): 625 micro V/(Hz)̂(1/2)

B2: Arch D95N: Archaerhodopsin 3 with D95N mutation, voltage indicator (protein, UniProt P96787 7-258, looked up, variant D95N)
Archaerhodopsin-3: B1 Archaerhodopsin-3 with D89N
f (delta F/F per 100 mV) (membrane voltage [3]; Arch indicators): 100%
response time (membrane voltage [3]; Arch indicators): 41 ms
